Activity calls are given as the source filed them. No rule for the calls is given here.
system: HeLa cell cycle, increased S-phase population; experiment: HeLa S-phase population increase, dose response, cell-based, IC50 (AID 1117348)

Structure (SMILES)	IC50
CCCCCCCCCCCC(=O)[O][Sn]([CH2]CCC)([CH2]CCC)[O]C(=O)CCCCCCCCCCC	> 10 µM (inactive)
COc1cc(NC(C)CCCN)c2ncccc2c1 (configuration not stated)	> 10 µM (inactive)
CCCCCCCCCCOCC(O)CN (configuration not stated)	> 10 µM (inactive)
Cc1ccccc1C(OCCN(C)C)c1ccccc1 (configuration not stated)	> 10 µM (inactive)
C[C@@H](O[C@H]1OCCN(Cc2n[nH]c(=O)[nH]2)[C@H]1c1ccc(F)cc1)c1cc(C(F)(F)F)cc(C(F)(F)F)c1	> 10 µM (inactive)
Cc1ccc2nc(N)[nH]c(=O)c2c1Sc1ccncc1	> 10 µM (inactive)
COC(=O)Nc1nc2ccc(C(=O)c3cccs3)cc2[nH]1	> 10 µM (inactive)
N[C@@H](Cc1ccc(N(CCCl)CCCl)cc1)C(=O)O	> 10 µM (inactive)
COc1cc(NCc2ccc3nc(N)nc(N)c3c2C)cc(OC)c1OC	> 10 µM (inactive)
O=C(O)CN(CCN(CC(=O)O)CC(=O)O)CCN(CC(=O)O)CC(=O)O	> 10 µM (inactive)
CCCNCC(O)COc1ccccc1C(=O)CCc1ccccc1 (configuration not stated)	> 10 µM (inactive)
O=c1[nH]c(=O)n([C@H]2C[C@H](O)[C@@H](CO)O2)cc1Br	> 10 µM (inactive)
CC(C)n1c(/C=C/[C@@H](O)C[C@@H](O)CC(=O)O)c(-c2ccc(F)cc2)c2ccccc21	> 10 µM (inactive)
O=[N+]([O-])c1ccc(O)c2ncccc12	> 10 µM (inactive)
CCCCOC(=O)c1ccc(N)cc1	> 10 µM (inactive)
Cc1ccc(Nc2nccc(N(C)c3ccc4c(C)n(C)nc4c3)n2)cc1S(N)(=O)=O	> 10 µM (inactive)
CC(C)(C)C(=O)OCOP(=O)(COCCn1cnc2c(N)ncnc21)OCOC(=O)C(C)(C)C	0.0608 µM
CC(C)=CCC/C(C)=C/CC/C(C)=C/C(=O)OCC(=O)[C@@]1(O)CC[C@H]2[C@@H]3CCC4=CC(=O)C=C[C@]4(C)[C@H]3[C@@H](O)C[C@@]21C	> 10 µM (inactive)
CCN(CC)CCOc1ccc(C(O)(Cc2ccc(Cl)cc2)c2ccc(C)cc2)cc1 (configuration not stated)	> 10 µM (inactive)
CC(=O)Oc1ccccc1C(=O)Nc1ncc([N+](=O)[O-])s1	> 10 µM (inactive)
Cc1cc(O)c2ccccc2c1O	> 10 µM (inactive)
O=C(O)CCCc1ccc(N(CCCl)CCCl)cc1	2.19 µM
Clc1ccccc1C(c1ccccc1)(c1ccccc1)n1ccnc1	> 10 µM (inactive)

Structure (SMILES)	IC50
CCCCCCCCCCCCCCCC[N+](C)(C)Cc1ccccc1	> 10 µM (inactive)
Cn1cnc([N+](=O)[O-])c1Sc1ncnc2nc[nH]c12	> 10 µM (inactive)
C[n+]1c2cc(N)ccc2cc2ccc(N)cc21 (tested in a mixture with another compound)	1.96 µM
O=C1C2CC=CCC2C(=O)N1SC(Cl)(Cl)Cl (configuration not stated)	> 10 µM (inactive)
O=C1[C@H]2CCCC[C@H]2C(=O)N1CCCCN1CCN(c2nsc3ccccc23)CC1	> 10 µM (inactive)
O=C1C(I)=CC(=C(c2cc(I)c(O)c(I)c2)c2ccccc2C(=O)O)C=C1I	> 10 µM (inactive)
COCCOC(=O)C1=C(C)NC(C)=C(C(=O)OC/C=C/c2ccccc2)C1c1cccc([N+](=O)[O-])c1 (configuration not stated)	> 10 µM (inactive)
CC(=O)[C@]1(O)Cc2c(O)c3c(c(O)c2[C@@H](O[C@H]2C[C@H](N)[C@H](O)[C@H](C)O2)C1)C(=O)c1ccccc1C3=O	> 10 µM (inactive)
COc1cccc2c1C(=O)c1c(O)c3c(c(O)c1C2=O)C[C@@](O)(C(C)=O)C[C@@H]3O[C@H]1C[C@H](N)[C@H](O)[C@H](C)O1	9.6 µM (inactive)
O=c1[nH]c(=O)n([C@H]2C[C@H](O)[C@@H](CO)O2)cc1F	0.169 µM
NCCCC[C@H](N[C@@H](CCc1ccccc1)C(=O)O)C(=O)N1CCC[C@H]1C(=O)O	> 10 µM (inactive)
Cc1cc2c(C(C)C)c(O)c(O)c(C=O)c2c(O)c1-c1c(C)cc2c(C(C)C)c(O)c(O)c(C=O)c2c1O	> 10 µM (inactive)
O=c1[nH]cc(F)c(=O)[nH]1	> 10 µM (inactive)
O=C(Nc1ccc([N+](=O)[O-])cc1Cl)c1cc(Cl)ccc1O	> 10 µM (inactive)
CN(C)c1ccc2nc3ccc(=[N+](C)C)cc-3sc2c1	> 10 µM (inactive)
[O-][n+]1ccccc1SSc1cccc[n+]1[O-]	> 10 µM (inactive)
Fc1ccc(C(OCCN2CCN(CCCc3ccccc3)CC2)c2ccc(F)cc2)cc1	> 10 µM (inactive)
CC[C@@]1(O)C(=O)OCc2c1cc1n(c2=O)Cc2cc3c(CN(C)C)c(O)ccc3nc2-1	0.082 µM
O=Cc1ccc(O)c(O)c1O	> 10 µM (inactive)
C=CC(=O)Nc1cc2c(Nc3ccc(F)c(Cl)c3)ncnc2cc1OCCCN1CCOCC1	> 10 µM (inactive)
CCC(COC(=O)c1cc(OC)c(OC)c(OC)c1)(c1ccccc1)N(C)C (configuration not stated)	> 10 µM (inactive)
C[C@@H]1C[C@H]2[C@@H]3CCC4=CC(=O)C=C[C@]4(C)[C@@]3(Cl)[C@@H](O)C[C@]2(C)[C@@]1(OC(=O)c1ccco1)C(=O)CCl	> 10 µM (inactive)
CCCSc1ccc2nc(NC(=O)OC)[nH]c2c1	> 10 µM (inactive)

Structure (SMILES)	IC50
O=C(Nc1ccc(Br)cc1)c1cc(Br)cc(Br)c1O	> 10 µM (inactive)
COC(=O)Nc1nc2ccc(C(=O)C3CC3)cc2[nH]1	> 10 µM (inactive)
COc1cc(-c2ccc(=O)[nH]n2)ccc1OC(F)F	> 10 µM (inactive)
Nc1nc(=S)c2[nH]cnc2[nH]1	> 10 µM (inactive)
COc1ccc2cc1Oc1ccc(cc1)C[C@H]1c3c(cc4c(c3Oc3cc5c(cc3OC)CCN(C)[C@@H]5C2)OCO4)CCN1C	> 10 µM (inactive)
Nc1ccc2cc3ccc(N)cc3nc2c1	3.44 µM
CO[C@@]12[C@H](COC(N)=O)C3=C(C(=O)C(C)=C(N)C3=O)N1C[C@@H]1N[C@@H]12	0.143 µM
Cc1nc(N)nc(N)c1-c1ccc(Cl)c(Cl)c1	> 10 µM (inactive)
Cc1cc(=O)c2c(O)c3c(O)cc(=O)c4c3c3c(cc(O)c1c23)C(C)(C)C=4O	> 10 µM (inactive)
COc1cccc2c1C(=O)c1c(O)c3c(c(O)c1C2=O)C[C@@](O)(C(=O)CO)C[C@@H]3O[C@H]1C[C@H](N)[C@H](O[C@@H]2CCCCO2)[C@H](C)O1	1.75 µM
CC(C)(C)C1CCC(CC2=C(O)c3ccccc3C(=O)C2=O)CC1 (configuration not stated)	> 10 µM (inactive)
CC[C@H](C)C(=O)O[C@H]1C[C@@H](C)C=C2C=C[C@H](C)[C@H](CC[C@@H]3C[C@@H](O)CC(=O)O3)[C@H]21	> 10 µM (inactive)
CC(=O)O[C@@]12CO[C@@H]1C[C@H](O)[C@@]1(C)C(=O)[C@H](O)C3=C(C)[C@@H](OC(=O)[C@H](O)[C@@H](NC(=O)OC(C)(C)C)c4ccccc4)C[C@@](O)([C@@H](OC(=O)c4ccccc4)[C@H]21)C3(C)C	> 10 µM (inactive)
Oc1c(Cl)cc(Cl)cc1Sc1cc(Cl)cc(Cl)c1O	> 10 µM (inactive)
CCCCC(CC)CN=C(N)NC(N)=NCCCCCCN=C(N)NC(N)=NCC(CC)CCCC (configuration not stated)	> 10 µM (inactive)
CCC(C)(C)C(=O)O[C@H]1C[C@@H](C)C=C2C=C[C@H](C)[C@H](CC[C@@H]3C[C@@H](O)CC(=O)O3)[C@H]21	> 10 µM (inactive)
CCN(CC)CCCC(C)Nc1c2ccc(Cl)cc2nc2ccc(OC)cc12 (configuration not stated)	2.26 µM
CCc1oc2ccccc2c1C(=O)c1cc(I)c(O)c(I)c1	> 10 µM (inactive)
O[C@@H](CNC[C@H](O)[C@H]1CCc2cc(F)ccc2O1)[C@@H]1CCc2cc(F)ccc2O1	> 10 µM (inactive)
CCCCCCCCCCCCCC[N+](C)(C)C	> 10 µM (inactive)
CN(C)/N=N/c1nc[nH]c1C(N)=O	> 10 µM (inactive)
CCCCCCCCCCCC[N+](C)(C)Cc1ccccc1	> 10 µM (inactive)
O=[N+]([O-])c1ccc(Oc2ccc(N=C=S)cc2)cc1	> 10 µM (inactive)

Structure (SMILES)	IC50
O=C(c1cc(O)c(O)c(O)c1)c1ccc(O)c(O)c1O	> 10 µM (inactive)
CN(C)CCOC(c1ccccc1)c1ccc(Br)cc1 (configuration not stated)	> 10 µM (inactive)
CC(C)=CCNc1ncnc2c1ncn2[C@@H]1O[C@H](CO)[C@@H](O)[C@H]1O	> 10 µM (inactive)
O=C1c2c(O)ccc(O)c2C(=O)c2c(NCCNCCO)ccc(NCCNCCO)c21	> 10 µM (inactive)
CCN(CC)CCOc1ccccc1C(=O)CCc1ccccc1	> 10 µM (inactive)
Nc1nc(=O)n([C@@H]2O[C@H](CO)[C@@H](O)[C@@H]2F)cc1I	> 10 µM (inactive)
Cc1ccc(CCn2c3c(c4cc(Cl)ccc42)CN(C)CC3)cn1	> 10 µM (inactive)
O=C1c2c(O)cccc2Cc2cccc(O)c21	> 10 µM (inactive)
COc1cc([C@@H]2c3cc4c(cc3[C@H](O)[C@H]3COC(=O)[C@H]23)OCO4)cc(OC)c1OC	> 10 µM (inactive)
C[C@]12CC[C@@H]3c4ccc(O)cc4CC[C@H]3[C@@H]1CC[C@@H]2OC(=O)CCC1CCCC1	> 10 µM (inactive)
Cc1cc(N)c2ccccc2[n+]1CCCCCCCCCC[n+]1c(C)cc(N)c2ccccc21	> 10 µM (inactive)
CC(=O)Oc1ccc(C2(c3ccc(OC(C)=O)cc3)Oc3ccccc3NC2=O)cc1	> 10 µM (inactive)
CCCCc1ccc2nc(NC(=O)OC)[nH]c2c1	> 10 µM (inactive)
CC(=O)N(O)CCCCCNC(=O)CCC(=O)N(O)CCCCCNC(=O)CCC(=O)N(O)CCCCCN	> 10 µM (inactive)
CC(C)=CCOc1ccc(/C=C/C(=O)c2ccc(OCC=C(C)C)cc2OCC(=O)O)cc1	> 10 µM (inactive)
Cc1cc(CC(C)CC(C)(C)C)n(O)c(=O)c1 (configuration not stated)	> 10 µM (inactive)
Clc1ccc(Nc2nnc(Cc3ccncc3)c3ccccc23)cc1	> 10 µM (inactive)
Nc1nc(Cl)nc2c1ncn2[C@@H]1O[C@H](CO)[C@@H](O)[C@@H]1F	> 10 µM (inactive)
CC(CC1c2ccccc2CCc2ccccc21)CN(C)C (configuration not stated)	> 10 µM (inactive)
C[C@@]12C(=O)OC(=O)[C@]1(C)C1CCC2O1	> 10 µM (inactive)
Cc1ccc2c(c1)c1c3n2CCNC3CCC1 (configuration not stated)	> 10 µM (inactive)
CC(C)c1c(C(=O)Nc2ccccc2)c(-c2ccccc2)c(-c2ccc(F)cc2)n1CC[C@@H](O)C[C@@H](O)CC(=O)O	> 10 µM (inactive)
Nc1nc(F)nc2c1ncn2[C@@H]1O[C@H](CO)[C@@H](O)[C@@H]1O	> 10 µM (inactive)

Source: PubChem BioAssay AID1117348 (Cheminformatics & Chemogenomics Research Group (CCRG), …, 2015)
